The numbers were not newly measured in patent US10040838B2, “CRHR2 peptide agonists and uses thereof” (JANSSEN PHARMACEUTICA NV, priority 2008, dated 2018), which cites them from elsewhere.

The target in this series is T1, h-CRHR1 (Homo sapiens, UniProt P34998).
T1 sequence (P34998 24-415): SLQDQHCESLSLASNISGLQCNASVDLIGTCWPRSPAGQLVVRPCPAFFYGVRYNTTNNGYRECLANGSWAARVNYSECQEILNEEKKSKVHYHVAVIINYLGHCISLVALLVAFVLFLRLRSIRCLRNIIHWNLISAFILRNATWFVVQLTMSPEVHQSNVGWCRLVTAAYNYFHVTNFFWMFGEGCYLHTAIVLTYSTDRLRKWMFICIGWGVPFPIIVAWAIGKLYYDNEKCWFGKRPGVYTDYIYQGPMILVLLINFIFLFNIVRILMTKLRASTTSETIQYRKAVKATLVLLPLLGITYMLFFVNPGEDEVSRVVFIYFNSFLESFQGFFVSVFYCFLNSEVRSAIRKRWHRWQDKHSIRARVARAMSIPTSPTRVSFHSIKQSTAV
The following applies: h-CRHR1 transfected HEK-293 cells, approximated from concentration response curves, Hsu et al. 2001; cited from earlier work.

No end group written: not given here. Bounds are passed on as bounds.

With “HPGSRIVLSLDVPIGLLQILLEQARARAAREQATTNARILARV-NH2 [SEQ ID NO: 117, HPGSRIVLSLDVPIGLLQILLEQARAPAAREQATTNARILARV-NH2, reference compound]”, the “Published pA50” value is on record as >7^3.
